The target in assay [1] is T1, Casein kinase I isoform alpha (Homo sapiens, UniProt P48729). Kind of assay: CSNK1A1 1uM ATP Assay. On the procedure:
The concentration of CSNK1A1 was adjusted depending of the activity of the enzyme lot and was chosen appropriate to have the assay in the linear range, a typical concentration is about 0.4 ng/μL. The reaction was stopped by the addition of 2.5 μL of ADP-Glo-reagent (1:1.5 fold diluted with water) and the resulting mixture was incubated at 22° C. for 1 h to convert the ATP not consumed in the kinase reaction completely to […]. […] The amount of emitted light was taken as a measure for the amount of ADP generated and thereby for the activity of the CSNK1A1.

Assay [2] deals with Casein kinase I isoform delta (Homo sapiens, UniProt P48730). Kind of assay: CSNK1D Assay. On the procedure:
As substrate for the kinase reaction the biotinylated peptide Btn-Ahx-[…] […] The concentration of CSNK1D was adjusted depending of the activity of the enzyme lot and was chosen appropriate to have the assay in the linear range, a typical concentration is about 0.5 ng/μL. The reaction was stopped by the addition of 2.5 μL of “ADP-Glo-reagent” (1:1.5 fold diluted with water) and the resulting mixture was incubated at 22° C. for 1 h to convert the ATP not consumed in the kinase reaction completely to […]. […] The amount of emitted light was taken as a measure for the amount of ADP generated and thereby for the activity of the CSNK1D.

The target of assay [3] is Epidermal growth factor receptor (Homo sapiens, UniProt P00533). The experiment in a line: WT-EGFR Kinase Assay. The method, then:
For the assay 50 nl of a 100 fold concentrated solution of the test compound in DMSO was pipetted into either a black low volume 384 well microtiter plate or a black 1536 well microtiter plate (both Greiner Bio-One, Frickenhausen, Germany), 2 μL of a solution of EGFR in aqueous assay buffer [50 mM Hepes pH 7.0, 10 mM MgCl2, 1 mM dithiothreitol, 0.5 mM EGTA, 0.3 mM activated sodium ortho-vanadate, 0.005% (w/v) bovine serum albumin, 0.005% (v/v) Tween-20] were added and the mixture was incubated for 15 min at 22° C. to allow pre-binding of the test compounds to the enzyme before the start of the kinase reaction. […] The concentration of EGFR was adjusted depending of the activity of the enzyme lot and was chosen appropriate to have the assay in the linear range, typical concentration was […]. The reaction was stopped by the addition of 3 μL of a solution of HTRF detection reagents (83.3 nM streptavidine-XL665 [Cisbio Bioassays, Codolet, France] and 1.67 nM PT66-Tb-Cryptate, a terbium-cryptate labelled anti-phospho-tyrosine antibody from Cisbio Bioassays [instead of the PT66-Tb-cryptate PT66-Eu-Chelate from Perkin Elmer can also be used]) in an aqueous EDTA-solution (133.3 mM EDTA, 0.2% (w/v) bovine serum albumin in 50 mM HEPES pH 7.5).

Assay [4] deals with T1, Casein kinase I isoform alpha. Kind of assay: CSNK1A1 High ATP Assay. The source says: Recombinant fusion protein of N-terminal Glutathion-S-Transferase (GST) and full-length human CSNK1A1, expressed by baculovirus infected insect cells and purified via Glutathion affinity chromatography, was purchased from Life Technologies (product no. PV4174) and used as enzyme. As substrate for the kinase reaction the biotinylated peptide biotin-Ahx-KRRRAL-pS-VASLPGL (C-terminus in amide form) was used which can be purchased e.g. from the company Biosyntan (Berlin-Buch, Germany).[2164]For the assay 50 nl of a 100 fold concentrated solution of the test compound in DMSO was pipetted into a white low volume 384-well microtiter plate (Greiner Bio-One, Frickenhausen, Germany), 2 μL of a solution of CSNK1A1 in aqueous assay buffer [50 mM HEPES pH 7.5, 10% (v/v) glycerol, 10 mM MgCl2, 50 mM NaCl, 1 mM dithiothreitol, 0.01% (w/v) bovine serum albumin, 0.01% (v/v) Triton X-100] were added and the mixture was incubated for 15 min at 22° C. to allow pre-binding of the test compounds to the enzyme before the start of the kinase reaction. […] The concentration of CSNK1A1 was adjusted depending of the activity of the enzyme lot and was chosen appropriate to have the assay in the linear range, a typical concentration is about 0.4 ng/μL. The reaction was stopped by the addition of 2.5 μL of ADP-Glo-reagent (1:1.5 fold diluted with water) and the resulting mixture was incubated at 22° C. for 1 h to convert the ATP not consumed in the kinase reaction completely […]. Subsequently 2.5 μL of the kinase detection reagent (1.2 fold more concentrated than recommended by the producer) were added, the resulting mixture was incubated at 22° C. for 1 h and then the luminescence measured with a suitable measurement instrument (e.g. Viewlux™ from Perkin-Elmer). The amount of emitted light was taken as a measure for the amount of ADP generated and thereby for the activity of the CSNK1A1.

Chain of Epidermal growth factor receptor (P00533 whole entry): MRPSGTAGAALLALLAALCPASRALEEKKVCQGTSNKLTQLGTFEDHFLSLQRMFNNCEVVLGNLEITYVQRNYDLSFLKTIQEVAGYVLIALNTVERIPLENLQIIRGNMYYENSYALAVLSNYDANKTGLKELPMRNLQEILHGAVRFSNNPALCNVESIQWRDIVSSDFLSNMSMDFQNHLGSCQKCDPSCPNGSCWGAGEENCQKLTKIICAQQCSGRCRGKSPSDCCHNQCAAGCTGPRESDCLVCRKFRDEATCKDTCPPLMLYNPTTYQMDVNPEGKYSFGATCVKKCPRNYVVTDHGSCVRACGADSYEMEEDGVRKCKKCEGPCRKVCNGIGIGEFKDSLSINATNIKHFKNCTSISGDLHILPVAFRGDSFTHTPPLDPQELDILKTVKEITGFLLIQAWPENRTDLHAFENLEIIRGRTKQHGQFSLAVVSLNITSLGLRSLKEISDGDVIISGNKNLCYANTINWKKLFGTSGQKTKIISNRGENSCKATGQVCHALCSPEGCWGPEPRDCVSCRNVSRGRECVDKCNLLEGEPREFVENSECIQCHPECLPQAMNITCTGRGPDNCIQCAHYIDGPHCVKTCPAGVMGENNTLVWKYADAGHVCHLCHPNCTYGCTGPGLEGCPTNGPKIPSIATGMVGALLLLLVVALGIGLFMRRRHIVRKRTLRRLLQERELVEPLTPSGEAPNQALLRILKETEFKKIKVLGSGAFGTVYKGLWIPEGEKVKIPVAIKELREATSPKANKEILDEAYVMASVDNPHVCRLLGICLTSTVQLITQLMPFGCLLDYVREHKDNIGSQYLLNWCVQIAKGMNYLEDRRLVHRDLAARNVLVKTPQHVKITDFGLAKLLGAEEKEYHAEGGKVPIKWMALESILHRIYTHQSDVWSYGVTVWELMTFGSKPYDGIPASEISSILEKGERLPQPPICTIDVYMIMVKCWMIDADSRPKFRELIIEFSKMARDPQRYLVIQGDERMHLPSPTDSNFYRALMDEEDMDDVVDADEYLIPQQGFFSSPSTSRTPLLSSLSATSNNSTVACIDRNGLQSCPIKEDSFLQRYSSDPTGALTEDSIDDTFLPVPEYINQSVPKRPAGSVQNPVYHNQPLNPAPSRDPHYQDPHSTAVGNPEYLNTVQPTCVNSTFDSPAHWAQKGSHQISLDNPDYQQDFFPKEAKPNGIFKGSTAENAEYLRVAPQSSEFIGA
T1 sequence (P48729 whole entry, canonical isoform): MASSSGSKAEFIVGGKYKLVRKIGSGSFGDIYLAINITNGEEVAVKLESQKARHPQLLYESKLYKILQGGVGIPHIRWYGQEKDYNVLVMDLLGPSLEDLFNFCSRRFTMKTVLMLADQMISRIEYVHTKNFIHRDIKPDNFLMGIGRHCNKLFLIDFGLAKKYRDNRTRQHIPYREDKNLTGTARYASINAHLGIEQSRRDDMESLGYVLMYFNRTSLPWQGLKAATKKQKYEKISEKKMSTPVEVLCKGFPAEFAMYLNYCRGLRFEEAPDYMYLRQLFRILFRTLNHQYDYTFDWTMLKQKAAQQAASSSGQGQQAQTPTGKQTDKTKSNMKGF
Chain of Casein kinase I isoform delta (P48730 whole entry, canonical isoform): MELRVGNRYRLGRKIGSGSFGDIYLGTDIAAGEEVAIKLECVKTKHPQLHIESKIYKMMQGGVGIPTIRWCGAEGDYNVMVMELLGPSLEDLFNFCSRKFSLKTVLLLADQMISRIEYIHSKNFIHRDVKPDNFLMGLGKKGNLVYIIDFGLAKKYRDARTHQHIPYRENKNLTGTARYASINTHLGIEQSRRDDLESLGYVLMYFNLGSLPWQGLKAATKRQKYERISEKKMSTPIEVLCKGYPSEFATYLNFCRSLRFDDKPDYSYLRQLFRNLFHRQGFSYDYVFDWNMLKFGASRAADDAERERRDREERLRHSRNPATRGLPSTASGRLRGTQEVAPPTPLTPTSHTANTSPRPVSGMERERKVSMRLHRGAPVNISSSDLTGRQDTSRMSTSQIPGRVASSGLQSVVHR

As a reminder, the IC50 is the concentration that inhibits the measured activity by half. `Cn1ccc2[nH]c(-c3ccnc(NC(=O)Cc4ccc(F)cc4)c3)c(-c3ccccc3)c2c1=O` [US20230322767, Example 5]: the IC50 in assay [1] is 0.86 nM; in assay [2] it was 2.5 nM; in assay [3], above 20000 nM.
Take `CN1CCc2[nH]c(-c3ccnc(NC(=O)[C@H]4C[C@H]4F)c3)c(Nc3ccccc3)c2C1=O` (relative stereo; form 1) [US20230322767, Example No. 40 WO 2016/120196]: the IC50 in assay [3] worked out at 85.5 nM; in assay [4] it was 24.1 nM.
`CN1CCc2[nH]c(-c3ccnc(NC(=O)[C@H]4C[C@H]4F)c3)c(Nc3ccccc3)c2C1=O` (relative stereo; form 2) [US20230322767, Example No. 25 WO 2016/120196]: the IC50 was 321 nM in assay [3] and 62.5 nM in assay [4].
Taken in the same sequence, the figures for `O=c1[nH]ccc2[nH]c(-c3ccncc3F)c(Nc3ccccc3)c12` [US20230322767, Example No. 16 WO 2016/120196] were 303 nM and 40.3 nM.
For `CN1CCc2[nH]c(-c3ccnc(NC(=O)C4CC4)c3)c(Nc3ccccc3)c2C1=O`, in that order: 42.6 nM and below 3.43 nM.

The record behind these values is BindingDB's records for patent US20230322767 (Bayer Aktiengesellschaft, 2023).
